Data published in article PMC10454409, “Hybrids of Sterically Hindered Phenols and Diaryl Ureas: Synthesis, Switch from Antioxidant Activity to ROS Generation and Induction of Apoptosis” (International Journal of Molecular Sciences, 2023).
Where two headings read alike, the source gives them in different places.

Tests used:
[1] = tested on: M-HeLa cells (human cervix epithelioid carcinoma); assay: MTT cytotoxicity test, M-HeLa; format: cell-based; settings: for IC50: Homo sapiens, M-HeLa, MTT test, 24 h incubation per text, 48 h per method
Excerpt: (§1) For the experiments, we used tumor cell cultures M-HeLa clone 11 (epithelioid carcinoma of the cervix, subline HeLa., clone M-HeLa), HuTu 80 (human duodenal adenocarcinoma) and MCF7 (human breast adenocarcinoma (pleural fluid)) from the collection of the Institute of Cytology, Russian Academy of Sciences (St. Petersburg); human liver cells (Chang liver) from the collection of the Research Institute of Virology at the Russian Academy of Medical Sciences (Moscow); and SH-SY5Y (neuroblastoma)from the Laboratory of Tumor Cell Genetics at the Scientific Research Institute of Carcinogenesis N.N. Blokhin National Medical Research Center of Oncology.
(§2) The cytotoxic effect on cells was determined using the colorimetric method of cell proliferation—the MTT test. NADP-H-dependent cellular oxidoreductase enzymes can, under certain conditions, reflect the number of viable cells. These enzymes are able to reduce the tetrazolium dye (MTT)-3-(4,5-dimethylthiazol-2-yl)-2,5-diphenyl-tetrazolium bromide to insoluble blue-violet formazan, which crystallizes inside the cell. The amount of formazan formed is proportional to the number of cells with active metabolism.
(§3) Cells were seeded on a 96-well Nunc plate at a concentration of 5 × 10^3 cells per well in a volume of 100 μL of medium and cultured in a CO2 incubator at 37 °C until a monolayer was formed. […] After 48 h, the nutrient medium was removed from the plates and 100 µL of the nutrient medium without serum with MTT at a concentration of 0.5 mg/mL was added and incubated for 4 h at 37 °C. Formazan crystals were […] 100 µL of DMSO in each well. Optical density was recorded at 540 nm on an in vitro logic microplate reader (Russia). The experiments for all compounds were repeated in triplicate.
(§4) IC50 values were estimated using the Quest Graph IC50 Calculator (AAT Bioquest, Inc., Sunnyvale, CA, USA) (Version 2022) (accessed on 25 June 2022).

[2] = tested on: SH-SY5Y cells (neuroblastoma); assay: MTT cytotoxicity test, SH-SY5Y; format: cell-based; settings: for IC50: Homo sapiens, SH-SY5Y, MTT test, 24 h incubation per text, 48 h per method
Excerpt: as §1, §2, §3, §4

[3] = tested on: MCF-7 cells (human breast adenocarcinoma); assay: MTT cytotoxicity test, MCF-7; format: cell-based; settings: for IC50: 24 h incubation per text, 48 h per method; for SI, selectivity index relative to Chang liver, MCF-7: MCF-7 vs Chang liver
Procedure: as §2
Formazan crystals were added to 100 µL of DMSO in each well. Optical density was recorded at 540 nm on an in vitro logic microplate reader (Russia). The experiments for all compounds were repeated in triplicate.

[4] = tested on: Chang liver cells (human liver cells, normal cell line); assay: MTT cytotoxicity test, Chang liver normal cells; format: cell-based; settings: 48 h incubation
Excerpt: as §1, §2, §3, §4

[5] = tested on: HuTu 80 cells (human duodenal adenocarcinoma); assay: MTT cytotoxicity test, HuTu 80; format: cell-based; settings: Homo sapiens
Excerpt: as §1, §2, §3, §4

[6] = tested on: HuTu 80 cells; assay: Intracellular ROS level, CellROX Deep Red flow cytometry; format: cell-based, human; settings: 48 h incubation, maximum concentration (IC50)
[7] = tested on: isolated rat liver mitochondria; assay: Membrane potential of isolated mitochondria (Safranin A); format: biochemical
Procedure: The membrane potential of rat […] mitochondria was measured with a Victor 3 plate analyzer (Perkin Elmer, Hamburg, Germany) using the potential-dependent indicator Safranin A [57]. The mitochondrial preparation was diluted in a buffer containing mannitol (225 mM) (Dia-M, Moscow, Russia), sucrose (75 mM) (Sigma Aldrich, Saint Louis, MO, USA), HEPES (10 mM) (Gibco, Scotland, UK), EGTA (20 µM) (Dia-M, Moscow, Russia) and KH2PO4 (1 mM) at pH = 7.4 at a ratio of 0.5 mg of protein to 1 mL of medium. Safranin A (5 µM) was added to the suspension immediately before the start of the measurement. The organelles were then energized by potassium succinate (5 mM) in the presence of rotenone (1 µM). Mitochondrial pore opening was induced by the addition of CaCl2 (25 µM).
Figure 8 Effect of the synthesized compounds on the membrane potential of rat liver mitochondria. (a) Kinetic lines of transmembrane potential changes at λex = 458 nm and λem = 590 nm. The concentration of the test substances was 100 µM. (b) Calculated parameters of % depolarization relative to control samples. Statistical significance was assessed using one-way ANOVA and Dunnett’s multiple comparison tests, where **** p < 0.0001 vs. control. (c) Concentration dependence of the effects of 11b and 17b on mitochondrial membrane potential. The concentration of the test substances was from 20 to 200 µM. Concentration of ions; Ca^2+—25 µM. Mitochondria were energized by potassium succinate and rotenone. Data are presented as mean±error of the mean (n = 3).

[8] = tested on: SH-SY5Y neuroblastoma cells; assay: Glycolysis stress test (Seahorse XF96e, ECAR); format: cell-based; settings: compound 100 µM; for Glycolysis: rate of extracellular acidification after saturating glucose: glucose 10 mM; for Glycolytic capacity: oligomycin 1 µM
Procedure: We studied the ability of compounds to inhibit aerobic glycolysis using the Agilent Seahorse XF96e Analyzer (Seahorse Bioscience, North Billerica, MA, USA) assay of cellular metabolism on the level of proton production in samples examined on the SH-SY5Y neuroblastoma cell line using glycolysis stress tests. The extracellular acidification rate of the medium was measured in real time, which allowed us to assess the intensity of glycolysis in the cells by recording the main parameters of glycolytic function: basal glycolysis, glycolytic capacity and glycolytic reserve. Glycolytic capacity describes the maximum amount of glycolysis/glucose breakdown the cells can perform acutely, whereas glycolytic reserve is defined as the difference between the basal and maximal glycolytic capacity.
The ability of synthesized compounds to modulate […] glycolysis was studied using the Agilent Seahorse XF96e Analyzer (Seahorse Bioscience, Billerica, MA, USA) on the neuroblastoma SH-SY5Y cell line (40,000 cells per well) as described earlier.
Glycolysis was measured by subtracting the maximum rate of extracellular acidification of the medium before glucose injection from the maximum rate before oligomycin injection. Glycolytic capacity was measured by subtracting the maximum velocity value before glucose injection from the maximum velocity value after oligomycin injection. Glycolytic reserve was defined as the difference between glycolytic capacity and glycolysis.
Figure 6 Effect of synthesized compounds on the glycolytic profile of (a–c) SH-SY5Y tumor cells and (d) calculated parameters of glycolytic function. […] The concentration of compounds was 100 µM, glucose—10 mM, oligomycin—1 µM и 2-fluoro-2-deoxy-D-glucose—25 mM. Data are presented as mean±error of the mean (n = 3). Statistical significance was assessed using one-way ANOVA and Dunnett’s multiple comparison tests, where **** p < 0.0001, *** p < 0.001, ** p < 0.01 and * p < 0.05 vs. control.

[9] = HuTu80, read-out: IC50, HuTu 80
[10] = HuTu80, MTT test, 24 h incubation per text, 48 h per method, read-out: IC50, HuTu 80

Row | SMILES | IC50 [1] [µM] | IC50 [2] [µM] | IC50 ([3]; Homo sapiens, MCF7, MTT test) [µM] | IC50 [4] [µM] | IC50 [5, 9] [µM] | SI, selectivity index relative to Chang liver, SH-SY5Y ([2]; SH-SY5Y vs Chang liver) | SI, selectivity index relative to Chang liver, MCF-7 [3] | IC50 [5, 10] [µM] | SI, selectivity index relative to Chang liver, M-HeLa ([1]; M-HeLa vs Chang liver) | Intracellular ROS level [6] [%] | Depolarization of mitochondrial membrane ([7]; isolated mitochondria, compound 100 μM) [%] | Depolarization relative to control (class in Figure 8b) ([7]; isolated rat liver mitochondria, compound 100 µM) | Glycolytic reserve [8] | Glycolysis: rate of extracellular acidification after saturating glucose [8] | Glycolytic capacity [8] | IC50 ([3]; MTT test) [µM]
1 | COP(=O)(OC)C(c1cc(C(C)(C)C)c(O)c(C(C)(C)C)c1)c1ccc(N)nc1N (centres unmarked) [3a] | 16.1 ± 1.3 | > 100 | 31 ± 2.6 | > 100 | > 100 | – | – | – | – | – | – | – | – | – | – | –
2 | CCOP(=O)(OCC)C(c1cc(C(C)(C)C)c(O)c(C(C)(C)C)c1)c1ccc(N)nc1N (centres unmarked) [3b] | 17.1 ± 1.3 | 77 ± 1.9 | 34.2 ± 3 | > 100 | 86.6 ± 6.8 | – | – | – | – | – | – | – | – | – | – | –
3 | CC(C)OP(=O)(OC(C)C)C(c1cc(C(C)(C)C)c(O)c(C(C)(C)C)c1)c1ccc(N)nc1N (centres unmarked) [3c] | 38 ± 2.8 | 30.4 ± 0.7 | 21.8 ± 1.7 | 100 ± 2.7 | – | ~3 | ~5 | > 100 | – | – | – | – | – | – | – | –
4 | CC(C)(C)c1cc(C(c2ccc(N)nc2N)P(=O)(Oc2ccccc2)Oc2ccccc2)cc(C(C)(C)C)c1O (centres unmarked) [3d] | 7.4 ± 0.7 | 18.8 ± 0.2 | 16.4 ± 1.7 | 52.3 ± 3.5 | 63.2 ± 5.6 | – | ~3 | – | ~7 | – | – | – | – | – | – | –
5 | CCOP(=O)(OCC)C(c1cc(C(C)(C)C)c(O)c(C(C)(C)C)c1)c1ccc(NC(=O)Nc2ccccc2)nc1NC(=O)Nc1ccccc1 (centres unmarked) [5b] | 62.5 ± 5.2 | 17.9 ± 1.9 | 36.3 ± 2.8 | 31.4 ± 2.4 | 20 ± 1.7 | – | – | – | – | – | – | – | – | – | – | –
6 | CCOP(=O)(OCC)C(c1cc(C(C)(C)C)c(O)c(C(C)(C)C)c1)c1ccc(NC(=O)Nc2cccc(C)c2)nc1NC(=O)Nc1cccc(C)c1 (centres unmarked) [8b] | 62 ± 2.2 | 41 ± 0.3 | 35.4 ± 2.8 | 13 ± 1.2 | < 15 | – | – | 8 ± 0.6 | – | – | – | – | – | – | – | –
7 | Cc1ccc(NC(=O)Nc2ccc(C(c3cc(C(C)(C)C)c(O)c(C(C)(C)C)c3)P(=O)(Oc3ccccc3)Oc3ccccc3)c(NC(=O)Nc3ccc(C)cc3)n2)cc1 (centres unmarked) [9d] | 78.9 ± 6.2 | > 100 | 76.6 ± 6.2 | > 100 | 50 ± 4 | – | – | – | – | – | – | – | – | – | – | –
8 | CCOP(=O)(OCC)C(c1cc(C(C)(C)C)c(O)c(C(C)(C)C)c1)c1ccc(NC(=O)Nc2ccc(OC)cc2)nc1NC(=O)Nc1ccc(OC)cc1 (centres unmarked) [10b] | > 100 | > 100 | 82.1 ± 6.5 | 81.2 ± 6.4 | 45 ± 3.6 | – | – | – | – | – | – | – | – | – | – | –
9 | CCOP(=O)(OCC)C(c1cc(C(C)(C)C)c(O)c(C(C)(C)C)c1)c1ccc(NC(=O)Nc2ccc(Cl)cc2)nc1NC(=O)Nc1ccc(Cl)cc1 (centres unmarked) [11b] | 70 ± 5.5 | 46.4 ± 0.92 | 63.1 ± 4.9 | 99.4 ± 7.8 | 25.7 | – | – | – | – | 670.7 ± 7.2 | 50 | High Depolarization | ability to decrease glycolytic reserves | decrease in the rate of extracellular acidification | decrease in glycolytic capacity | –
10 | COP(=O)(OC)C(c1cc(C(C)(C)C)c(O)c(C(C)(C)C)c1)c1ccc(NC(=O)Nc2cccc(C)c2)cc1NC(=O)Nc1cccc(C)c1 (centres unmarked) [13a] | 75 ± 6 | > 100 | 77.4 ± 6.3 | 92 ± 7.2 | 75.1 ± 6.1 | – | – | – | – | – | – | – | – | – | – | –
11 | CCOP(=O)(OCC)C(c1cc(C(C)(C)C)c(O)c(C(C)(C)C)c1)c1ccc(NC(=O)Nc2cccc(C)c2)cc1NC(=O)Nc1cccc(C)c1 (centres unmarked) [13b] | 96.3 ± 7.5 | 86.3 ± 4 | 57.7 ± 4.6 | 68.2 ± 5.4 | 40.1 ± 3.1 | – | – | – | – | – | – | – | – | – | – | –
12 | CCOP(=O)(OCC)C(c1cc(C(C)(C)C)c(O)c(C(C)(C)C)c1)c1ccc(NC(=O)Nc2ccc(C)cc2)cc1NC(=O)Nc1ccc(C)cc1 (centres unmarked) [14b] | 14.1 ± 1.2 | 27 ± 1.1 | < 15 | 21 ± 1.8 | 15.7 ± 1.3 | – | – | – | – | – | – | – | – | decrease in the rate of extracellular acidification | decrease in glycolytic capacity | 13.7 ± 1.2
13 | CCOP(=O)(OCC)C(c1cc(C(C)(C)C)c(O)c(C(C)(C)C)c1)c1ccc(NC(=O)Nc2ccc(OC)cc2)cc1NC(=O)Nc1ccc(OC)cc1 (centres unmarked) [15b] | > 100 | > 100 | 96.3 ± 7.6 | 96 ± 7.6 | 58.7 ± 4.6 | – | – | – | – | – | – | – | – | – | – | –
14 | CCOP(=O)(OCC)C(c1cc(C(C)(C)C)c(O)c(C(C)(C)C)c1)c1ccc(NC(=O)Nc2ccc(Cl)cc2)cc1NC(=O)Nc1ccc(Cl)cc1 (centres unmarked) [16b] | 100 ± 8.6 | > 100 | > 100 | > 100 | 61 ± 4.8 | – | – | – | – | – | – | – | – | – | – | –
15 | COP(=O)(OC)C(c1cc(C(C)(C)C)c(O)c(C(C)(C)C)c1)c1ccc(NC(=O)Nc2ccc([N+](=O)[O-])cc2)cc1NC(=O)Nc1ccc([N+](=O)[O-])cc1 (centres unmarked) [17a] | 60 ± 4.7 | > 100 | 73.6 ± 5.8 | 86 ± 6.6 | 41 ± 3.1 | – | – | – | – | – | – | – | – | – | – | –
16 | CNC(=O)c1cc(Oc2ccc(NC(=O)Nc3ccc(Cl)c(C(F)(F)F)c3)cc2)ccn1 [SF, sorafenib, reference compound] | 25 ± 1.9 | – | – | 21.7 ± 1.7 | – | – | – | 6.2 ± 0.5 | – | – | – | – | – | – | – | –
